Read-outs that look alike come from different tables or passages of the source.
Experiments:
recombinant human PIM1 = recombinant human PIM1 (Homo sapiens (Human), UniProt P11309); assay: PIM-1 kinase activity in cell-free in vitro assay; assay type: biochemical; conditions: for inhibition at 0.5 µM: 500 nM compound, read-out: PIM-1: % inh 500 nM
[1] = tested on: HCT-116 human colorectal carcinoma cells; assay: Cell-proliferation assay using Alamar Blue dye; assay type: cell-based; conditions: Homo sapiens, read-out: HCT-116 (uM), cell proliferation modulatory activity;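 further: cells exposed to compound for about 4 days, then Alamar Blue added and dye fluorescence read after about 4 h, compared with medium-only control wells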
[2] = HCT-116, HCT-116, second column

Chain of recombinant human PIM1 (P11309 whole entry): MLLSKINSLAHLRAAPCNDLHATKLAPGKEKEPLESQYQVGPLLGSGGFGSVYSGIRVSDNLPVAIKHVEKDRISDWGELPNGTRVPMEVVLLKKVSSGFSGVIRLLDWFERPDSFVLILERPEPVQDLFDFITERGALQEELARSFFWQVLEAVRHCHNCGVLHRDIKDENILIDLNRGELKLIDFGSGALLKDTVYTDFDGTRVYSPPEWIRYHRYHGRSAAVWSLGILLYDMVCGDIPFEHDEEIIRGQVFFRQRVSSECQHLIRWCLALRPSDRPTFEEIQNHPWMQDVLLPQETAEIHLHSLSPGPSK

inhibition at 0.5 µM (recombinant human PIM1; cell-free) [%]	IC50 ([1]; HCT-116, HCT-116, first column) [µM]	Compound	also measured
-24.7	10	O=C(NCCCO)c1ccc2c(c1)nc(NCCCO)c1ccsc12	–
-63.6	0.5	CN(C)CCNc1nc2cc(C#N)ccc2c2ccccc12	–
-65.4	10	N#Cc1ccc2c(c1)nc(Nc1ccccc1)c1ccccc12	–
15.8	10	c1ccc(Nc2nc3cc(-c4nnn[nH]4)ccc3c3ccccc23)cc1	–
-22.1	10	Clc1nc2ccccc2c2sccc12	–
-26.1	10	O=C(O)CNc1nc2cc(C(=O)O)ccc2c2sccc12	–
-40.1	10	O=C(O)c1ccc2c(c1)nc(Nc1nc3ccccc3[nH]1)c1ccsc12	–
-16	10	O=C(O)c1ccc2c(c1)nc(N1CCCC1)c1ccsc12	–
35.4	10	CCC(c1ccccc1)c1nc2cc(C(=O)O)ccc2c2sccc12 (stereo not shown)	–
3.04	10	N#Cc1ccc2c(c1)nc(OCCCO)c1ccccc12	–
7.28	10	OCCCOc1nc2ccccc2c2ccccc12	–
40.8	10	OCCCOc1nc2cc(-c3nnn[nH]3)ccc2c2ccccc12	–
-23.9	10	c1ccc(Nc2nc3ccccc3c3ccccc23)cc1	–
-17.5	10	O=C(O)CNc1nc2ccccc2c2ccccc12	–
56.9	10	CN(C)CCNc1nc2cc(-c3nnn[nH]3)ccc2c2ccccc12	–
2.59	10	COC(=O)c1ccc2c(c1)nc(Nc1ccccc1)c1ccsc12	–
-15.7	10	CS(=O)(=O)NC(=O)c1ccc2c(c1)nc(Nc1ccccc1)c1ccsc12	–
21.8	–	COc1ccc(OC)c(Nc2nc3cc(-c4nnn[nH]4)ccc3c3sccc23)c1	–
-16	–	N#Cc1ccc2c(c1)[nH]c(=O)c1ccncc12	IC50 [1, 2]: > 10 µM
33.1	–	c1ccc(Nc2nc3cc(-c4nnn[nH]4)ccc3c3cnccc23)cc1	–
38.1	–	CN(C)CCNc1nc2cc(-c3nnn[nH]3)ccc2c2cnccc12	–
4.18	–	NC(=O)c1ccc2c(c1)[nH]c(=O)c1ccncc12	IC50 [1, 2]: > 10 µM

inhibition at 0.5 µM (recombinant human PIM1; cell-free) [%]	IC50 ([1]; HCT-116, HCT-116, first column) [µM]	Compound	also measured
30.7	–	FC(F)(F)Oc1cccc(Nc2nc3cc(-c4nnn[nH]4)ccc3c3sccc23)c1	–
63	–	COc1ccc(Nc2nc3cc(-c4nnn[nH]4)ccc3c3sccc23)cc1	IC50 (recombinant human PIM1; cell-free): > 1.1 µM; IC50 [1, 2]: > 10 µM
46.1	–	CCOc1ccc(Nc2nc3cc(-c4nnn[nH]4)ccc3c3sccc23)cc1	IC50 [1, 2]: > 10 µM
32.5	–	FC(F)(F)Oc1ccc(Nc2nc3cc(-c4nnn[nH]4)ccc3c3sccc23)cc1	IC50 [1, 2]: > 10 µM
9.03	–	c1ccc(COc2ccc(Nc3nc4cc(-c5nnn[nH]5)ccc4c4sccc34)cc2)cc1	IC50 [1, 2]: 15 µM
55.5	–	COc1ccc(Nc2nc3cc(-c4nnn[nH]4)ccc3c3sccc23)cc1OC	IC50 (recombinant human PIM1; cell-free): 0.809 µM; IC50 [1, 2]: > 10 µM
27.1	–	CC(=O)Nc1cccc(Nc2nc3cc(-c4nnn[nH]4)ccc3c3sccc23)c1	–
58	–	Cc1cccc(Nc2nc3cc(-c4nnn[nH]4)ccc3c3sccc23)c1	IC50 (recombinant human PIM1; cell-free): 0.386 µM
58	–	O=C(O)c1cccc(Nc2nc3cc(-c4nnn[nH]4)ccc3c3sccc23)c1	IC50 (recombinant human PIM1; cell-free): 0.648 µM
81.1	–	O=C(O)c1ccc2c(c1)nc(Nc1cccc(Cl)c1)c1ccsc12	IC50 (recombinant human PIM1; cell-free): 0.391 µM
26	–	C#Cc1cccc(Nc2nc3cc(C(=O)O)ccc3c3sccc23)c1	–
47.7	–	CCCNC(=O)c1cccc(Nc2nc3cc(-c4nnn[nH]4)ccc3c3sccc23)c1	–
9.3	–	Fc1cc(Nc2nc3cc(-c4nnn[nH]4)ccc3c3cnccc23)ccc1Cl	–
–	–	O=C(O)c1ccc2c(c1)nc(Nc1ccccc1)c1nc(NC3CCNCC3)ncc12	inhibition at 0.5 µM (recombinant human PIM1; cell-free assay): -2.53%
–	–	CCN(CC)CCNc1ncc2c(n1)c(Nc1ccccc1)nc1cc(C(=O)O)ccc12	inhibition at 0.5 µM (recombinant human PIM1; cell-free assay): 4.27%
–	–	CCOc1ncc2c(n1)c(Nc1cccc(C(F)(F)F)c1)nc1cc(C(=O)O)ccc12	inhibition at 0.5 µM (recombinant human PIM1; cell-free assay): -5%
–	–	CC(C)Nc1ncc2c(n1)c(Nc1cccc(Cl)c1)nc1cc(C(=O)O)ccc12	inhibition at 0.5 µM (recombinant human PIM1; cell-free assay): -0.505%
–	–	O=C(O)c1ccc2c(c1)nc(Nc1cccc(Cl)c1)c1nc(O)ncc12	inhibition at 0.5 µM (recombinant human PIM1; cell-free assay): 3.53%
–	–	Cc1ncc2c(n1)c(Nc1cccc(Cl)c1)nc1cc(C(=O)O)ccc12	inhibition at 0.5 µM (recombinant human PIM1; cell-free assay): 12.9%
–	–	C#Cc1cccc(Nc2nc3cc(C(=O)OC)ccc3c3cnc(NOC)nc23)c1	inhibition at 0.5 µM (recombinant human PIM1; cell-free assay): 0.371%
–	–	O=C(O)CCNc1ncc2c(n1)c(Nc1cccc(Cl)c1)nc1cc(C(=O)O)ccc12	inhibition at 0.5 µM (recombinant human PIM1; cell-free assay): 24.2%
–	–	O=C(O)c1ccc2c(c1)nc(Nc1cccc(F)c1)c1nc(NC3CC3)ncc12	inhibition at 0.5 µM (recombinant human PIM1; cell-free assay): 59.3%

Source: patent US8168651B2, “Protein kinase modulators” (Cylene Pharmaceuticals, Inc., priority 2008, dated 2012)
